Values of other authors in US20150320795A1, “COMPOSITIONS AND METHODS COMPRISING POLYETHYLENE GLYCOL AND MAGNESIUM FOR TREATMENT OF NEURONAL INJURY” (priority 2012, published 2015).
Like-named read-outs stand apart in the source and are kept apart here.

Tests used:
brain injury = settings: animals; U.S. application Ser. No. 11/418,153
[1] = previously published

[Mg+2] [magnesium]
effect on the loss of cognitive functions following brain injury (brain injury): no effect
serum magnesium half-lives ([1]; brain injured patients after a 24-hour infusion period): ~6 h
serum magnesium half-lives ([1]; healthy volunteers, after one infusion): 1.25 to 4.75 h
serum magnesium half-lives ([1]; patients, pre-eclampsia): 5.2 h
